The conditions of data set [1]: patients on therapy; cited from earlier work.
A further data set can be described thus: Solubility. The data set is classed as physicochemical.
Data set [2] is described as follows: Partition coefficient in an octanol-water system. The class given is physicochemical. Particulars: berberine alone.

Like-named read-outs stand apart in the source and are kept apart here.

Take ipilimumab: anti-CTLA-4 inhibitor: the maculopapular rash described in data set [1] is recorded as 33 % of patients. As for `Nc1cc(C(F)(F)F)c(-c2cc(N3CCOCC3)nc(N3CCOCC3)n2)cn1` [BKM-120], the maculopapular rash described in data set [1] is listed as 37 % of patients.

With `NC1(c2ccc(-c3nc4ccn5c(=O)[nH]nc5c4cc3-c3ccccc3)cc2)CCC1` [MK2206], in data set [1], the maculopapular rash described is listed as 52 % of patients.

Consider nivolumab: anti-PD-1 inhibitor, for which, in data set [1], the maculopapular rash described is 26 % of patients. With `CN(C)C/C=C/C(=O)Nc1cc2c(Nc3ccc(F)c(Cl)c3)ncnc2cc1O[C@H]1CCOC1` [afatinib], in data set [1], the papulopustular rash reported was 90 % of patients. Regarding `COc1ccc2cc3[n+](cc2c1OC)CCc1cc2c(cc1-3)OCO2` [berberine, 5,6-dihydro-9,10-dimethoxybenzo(g)-1,3-benzodioxolo (5,6-a) quinolizinium], the solubility in the data set “Solubility” (aqueous berberine solubility) is 1570 µg/mL; in “Solubility” (medium containing SDS (sodium dodecyl sulfate), aqueous with cosolvent or surfactant or cyclodextrin, pH of between 4 and 7, read-out: berberine solubility in the presence of SDS), 10 to 60 µg/mL; in the data set “Solubility” (water, aqueous berberine solubility, read-out: solubility), 1570 µg/mL. The logP in data set [2] was 0.0294. In the case of `Cn1cnc2c(F)c(Nc3ccc(Br)cc3Cl)c(C(=O)NOCCO)cc21` [selumetinib], the papulopustular rash reported in data set [1] is reported as 93 % of patients.

These data come from patent publication US10213418B2, “Therapeutic uses of berberine formulations” (TWi Biotechnology, Inc., priority 2013, dated 2019).
